Assay [1] concerns arachidonic acid-induced ear swelling. The assay is described as follows: topical arachidonic acid-induced ear swelling model in mice. The assay is classed as in vivo. How it is done: The test compound, indomethacin (positive control), and vehicle were evaluated for anti-inflammatory activity in a topical arachidonic acid-induced ear swelling model in mice. Male ICR mice weighing 22±2 g were used and randomly divided; the test compound and vehicle control had 10 mice, and indomethacin had 5 mice. Arachidonic Acid (0.5 mg in 20 μl of acetone:ethanol/1:1) was applied topically to the anterior and posterior surfaces of the right ear of each mice. Test substances and vehicle, as listed in Table 1 were similarly applied 30 min before and 15 min after arachidonic acid application. The thickness of the right ear and the left ear was measured and the difference calculated as an indication of the inflammation in the right ear. Ear swelling was measured by a Dyer model micrometer gauge at 60 and 90 minutes after arachidonic acid application as an index of inflammation. Percent inhibition was calculated according to the formula: Ic−It/Ic×100, where Ic and It refers to increase of ear thickness (mm) in control and treated mice, respectively. ANOVA and Dunnett's test were employed to ascertain significant difference between vehicle control and treated groups. Significance is set at P<0.05 level.

Assay [2] has as its system tail flick reaction to heat. The assay is described as follows: tail flick test in mice (49° C. water bath). Type of assay: in vivo. How it is done:
The tail flick test is a test of the pain response in animals. The tail flick test is used in basic pain research and to measure the effectiveness of analgesics, by observing the tail flick reaction to heat in an animal. This test assesses the nociceptive response to a local pain stimulus, and the ability of a drug to inhibit this response.
Vehicle control (DMSO) and test compound 3-benzylsulfonylpropionitrilein in DMSO were administered by oral gavage to mice with a volume of 5 mL/kg, immediately prior to testing, at time zero. The test compound was administered at a dosage of 500 mg/kg in DMSO. Positive control morphine in water was administered at time zero by subcutaneous injection at 8 mg/kg to mice. […] The purpose of morphine is […] to serve as a comparison with the test compound. Each group had 10 mice.
The response of mice to heat stimulus was evaluated by measuring the time of tail-flick or tail-flick latency from 49° C. water bath. Briefly, the animal was held with its tail hanging down. Approximately 2 inches of the tail was immersed in a beaker of water at 38±1° C. for about 30 seconds, and this was done twice to acclimate the animal to the procedure.
Subsequently, approximately 2 inches of the tail was immersed in a beaker of water at 49±1° C., at which point a timer was started.
Tail flick measurements were made at 0, 30, 60, and 120 minutes post administration of the dosage of test compound, vehicle, or morphine. An ANOVA was done, and if p<0.05, a Dunnett's t test was employed to calculate significant difference between vehicle control and test compound treated groups. A pairwise Student's t test was used to calculate differences between the morphine group and the control group. […] Analysis with p-values <0.05 is considered significant.
A general note: In hot-plate and tail-flick tests a longer latency is read as antinociception.

SMILES strings stand for the structures.

As for `N#CCCS(=O)(=O)Cc1ccccc1` [3-Benzylsulfonylpropionitrile, 3-benzylsulfonylpropionitrile], the “anti-inflammatory activity in the mouse ear swelling model” value in assay [1] (applied topically, inflammation induced by arachidonic acid) is “anti-inflammatory”. Also, the “tail flick latency compared with vehicle-treated mice” value in assay [2] (oral administration 500 mg/kg in DMSO, 30, 60, and 120 minutes post dosing) is reported as “statistically significant tail flick latency”. As for `COc1ccc2c(c1)c(CC(=O)O)c(C)n2C(=O)c1ccc(Cl)cc1` [Indomethacin, indomethacin, reference compound], the “% Inhibition of ear swelling” value in assay [1] (topical application 30 min before and 15 min after arachidonic acid, measured at 90 minutes after arachidonic acid, relative to vehicle) came to 58%. In the case of `CN1CC[C@]23c4c5ccc(O)c4O[C@H]2[C@@H](O)C=C[C@H]3[C@H]1C5` [morphine], the “tail flick latency compared with vehicle-treated mice” value was “statistically significant tail flick latency” in assay [2] (subcutaneous injection 8 mg/kg, 30 and 60 minutes post dosing); “not” in assay [2] (subcutaneous injection 8 mg/kg, 120 minutes post dosing).

The record behind these values is patent US10172822B2, “Pharmaceutical use of 3-benzylsulfonylpropionitrile” (Olatec Therapeutics LLC, priority 2013, dated 2019).
